“And” between values parts separate entries of the source, which are not always exact repeats. Identical values can stand only once.
What was measured:
[1] = target: Saccharomyces cerevisiae α-glucosidase (E.C 3.2.1.20) (Saccharomyces cerevisiae, UniProt P53341); experiment: Alpha-glucosidase inhibition assay; assay type: biochemical; conditions: Alpha-glucosidase inhibition IC50, isolated compounds; acarbose positive control
alpha-glucosidase [2] = target: alpha-glucosidase (Saccharomyces cerevisiae, UniProt P53341); experiment: Inhibitory type assay of BM3 on alpha-glucosidase; assay type: biochemical
alpha-glucosidase [3] = conditions: kinetic studies; ref Adisakwattana et al. (2009); cited from earlier work
alpha-glucosidase [4] = conditions: ref Wu et al., 2017; cited from earlier work
pancreatic lipase enzyme = conditions: extracted from T. stans leaves; ref [28]; cited from earlier work

Sequence of Saccharomyces cerevisiae α-glucosidase (E.C 3.2.1.20) (P53341 whole entry): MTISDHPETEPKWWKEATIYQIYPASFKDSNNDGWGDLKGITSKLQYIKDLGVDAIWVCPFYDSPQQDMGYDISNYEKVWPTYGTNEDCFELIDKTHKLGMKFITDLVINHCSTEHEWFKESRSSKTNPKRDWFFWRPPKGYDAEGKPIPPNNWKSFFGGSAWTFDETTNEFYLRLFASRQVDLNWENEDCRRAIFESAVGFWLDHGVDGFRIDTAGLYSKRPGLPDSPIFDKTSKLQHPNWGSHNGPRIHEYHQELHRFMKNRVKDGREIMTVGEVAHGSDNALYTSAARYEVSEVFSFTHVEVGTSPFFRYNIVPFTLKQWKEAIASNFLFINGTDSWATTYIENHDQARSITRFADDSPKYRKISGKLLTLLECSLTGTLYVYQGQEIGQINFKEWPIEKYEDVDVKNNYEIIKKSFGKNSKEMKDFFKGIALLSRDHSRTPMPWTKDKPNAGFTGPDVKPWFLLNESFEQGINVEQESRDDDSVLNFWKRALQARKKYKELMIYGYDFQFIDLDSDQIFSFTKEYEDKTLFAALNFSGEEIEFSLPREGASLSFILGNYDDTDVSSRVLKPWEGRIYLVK
Sequence of alpha-glucosidase (Saccharomyces cerevisiae, UniProt P53341) (P53341 whole entry): as above

`COC(=O)c1cc(O)c(O)c(O)c1` [BM2, methyl gallate] showed an IC50 [1] of 71 ± 2.1 µM.
With `COC(=O)c1cc(O)c(O)c(OC(=O)c2cc(O)c(O)c(O)c2)c1` [BM3, 3-O-galloylgallic acid methyl ester] the IC50 [1] was 18.2 ± 0.8 µM, the Ki (alpha-glucosidase [2]) was 31.2 µM and the inhibition type (alpha-glucosidase [2]; Lineweaver-Burk plots, pNPG 1, 2, 4 mM) was “competitive”. It also gave a Vmax (alpha-glucosidase [2]; no effect of increasing BM3 concentration) of 0.049 µM/min.
With `O=c1c(O[C@@H]2O[C@H](CO)[C@@H](O)[C@H](O)[C@H]2O)c(-c2ccc(O)c(O)c2)oc2cc(O)cc(O)c12` [NC2, isoquercitrin] the IC50 [1] was 35.6 µM and 36.8 µM.
In the case of `O=C(O)/C=C/c1ccc(O)c(O)c1` [NC3, caffeic acid], the inhibition type (alpha-glucosidase [3]) is listed as “non-competitive”.
In the case of `C[C@H]1[C@H](C)CC[C@]2(C(=O)O)CC[C@]3(C)C(=CC[C@@H]4[C@@]5(C)CC[C@H](O)C(C)(C)[C@@H]5CC[C@]43C)[C@H]12` [TS1, ursolic acid], the IC50 [1] is listed as 39.2 ± 0.6 µM and the inhibition of alpha-glucosidase (alpha-glucosidase [4]) is listed as “strong inhibition”.
In the case of `COc1cc(-c2cc(=O)c3c(O)cc(O)cc3o2)ccc1O` [TS3, chrysoeriol], the “inhibition of pancreatic lipase enzyme” value (pancreatic lipase enzyme) is given as “strong inhibition”.

Reference: paper PMC8848031 (Saudi Journal of Biological Sciences, 2021)
